In PubChem BioAssay AID1963874 (Molecular Pharmacology Branch, DTP, NCI, 2024):

Tested on: 253994-281-T-J1-PDC KRAS-mutant spheroids with HUVEC/MSC, viability
Test: Anticancer human tumor 253994-281-T-J1-PDC patient-derived colorectal carcinoma cell line growth inhibition [KRAS2]
Details: for IC50: curve of first compound; for viability, T/C: stronger effect = lower value
Summary of the method: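 Combination screen of spheroid viability in tumor-cell co-cultures with endothelial (HUVEC) and mesenchymal stem cell stroma. Each agent was tested in half-log dilutions, topping at clinical Cmax or at 10 microM without a known Cmax.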

[1] = second compound 0.1 µM, first compound 0.0316 µM
[2] = second compound 0.1 µM, first compound 0.1 µM
[3] = second compound 0.316 µM, first compound 0.0316 µM
[4] = second compound 0.316 µM, first compound 0.1 µM
[5] = second compound 1 µM, first compound 0.0316 µM
[6] = second compound 1 µM, first compound 0.1 µM
[7] = second compound 3.16 µM, first compound 0.0316 µM
[8] = second compound 3.16 µM, first compound 0.1 µM
[9] = second compound 10 µM, first compound 0.0316 µM
[10] = second compound 10 µM, first compound 0.1 µM
[11] = second compound 0.1 µM, first compound 0.316 µM
[12] = second compound 0.1 µM, first compound 1 µM
[13] = second compound 0.1 µM, first compound 3.16 µM
[14] = second compound 0.1 µM, first compound 10 µM
[15] = second compound 0.316 µM, first compound 0.316 µM
[16] = second compound 0.316 µM, first compound 1 µM
[17] = second compound 0.316 µM, first compound 3.16 µM
[18] = second compound 0.316 µM, first compound 10 µM
[19] = second compound 1 µM, first compound 0.316 µM
[20] = second compound 1 µM, first compound 1 µM
[21] = second compound 1 µM, first compound 3.16 µM
[22] = second compound 1 µM, first compound 10 µM
[23] = second compound 3.16 µM, first compound 0.316 µM
[24] = second compound 3.16 µM, first compound 1 µM
[25] = second compound 3.16 µM, first compound 3.16 µM
[26] = second compound 3.16 µM, first compound 10 µM
[27] = second compound 10 µM, first compound 0.316 µM
[28] = second compound 10 µM, first compound 1 µM
[29] = second compound 10 µM, first compound 3.16 µM
[30] = second compound 10 µM, first compound 10 µM
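Note: spheroids exposed to agents for seven days before readout.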
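Throughout, for viability, T/C: percent of DMSO vehicle control viability.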

| Structure (SMILES) | IC50 (second compound 0.1 µM) | IC50 (second compound 0.316 µM) | IC50 (second compound 1 µM) | IC50 (second compound 3.16 µM) | IC50 (second compound 10 µM) | viability, T/C [1] | viability, T/C [2] | viability, T/C [3] | viability, T/C [4] | viability, T/C [5] | viability, T/C [6] | viability, T/C [7] | viability, T/C [8] | viability, T/C [9] | viability, T/C [10] | viability, T/C [11] | viability, T/C [12] | viability, T/C [13] | viability, T/C [14] | viability, T/C [15] | further results |
| --- | --- | --- | --- | --- | --- | --- | --- | --- | --- | --- | --- | --- | --- | --- | --- | --- | --- | --- | --- | --- | --- |
| CC(C)n1nc(-c2ccc3oc(N)nc3c2)c2c(N)ncnc21 + CNCc1ccccc1-c1csc(C(C)Nc2nc(C)nc3cc(OC)c(OC)cc23)c1 | > 100 nM | > 100 nM | > 100 nM | 0.316 nM | < 0.316 nM | 79.7% | 50.8% | 78.1% | 57% | 73.3% | 51% | 42.3% | 28.2% | 0.13% | 0.18% | – | – | – | – | – | viability, T/C (second compound 0.1 µM, first compound 0.000316 µM): 96.7%; viability, T/C (second compound 0.1 µM, first compound 0.001 µM): 86.8%; viability, T/C (second compound 0.1 µM, first compound 0.00316 µM): 74.5%; viability, T/C (second compound 0.1 µM, first compound 0.01 µM): 75.8%; viability, T/C (second compound 0.316 µM, first compound 0.000316 µM): 91%; viability, T/C (second compound 0.316 µM, first compound 0.001 µM): 87.5%; viability, T/C (second compound 0.316 µM, first compound 0.00316 µM): 82.7%; viability, T/C (second compound 0.316 µM, first compound 0.01 µM): 73.2%; viability, T/C (second compound 1 µM, first compound 0.000316 µM): 93.3%; viability, T/C (second compound 1 µM, first compound 0.001 µM): 78%; viability, T/C (second compound 1 µM, first compound 0.00316 µM): 79.3%; viability, T/C (second compound 1 µM, first compound 0.01 µM): 76.8%; viability, T/C (second compound 3.16 µM, first compound 0.000316 µM): 37.9%; viability, T/C (second compound 3.16 µM, first compound 0.001 µM): 45.2%; viability, T/C (second compound 3.16 µM, first compound 0.00316 µM): 56.9%; viability, T/C (second compound 3.16 µM, first compound 0.01 µM): 9.64%; viability, T/C (second compound 10 µM, first compound 0.000316 µM): 0.12%; viability, T/C (second compound 10 µM, first compound 0.001 µM): 0.13%; viability, T/C (second compound 10 µM, first compound 0.00316 µM): 0.13%; viability, T/C (second compound 10 µM, first compound 0.01 µM): 0.11% |
| CC1(C)CCC(CN2CCN(c3ccc(C(=O)NS(=O)(=O)c4ccc(NCC5CCOCC5)c([N+](=O)[O-])c4)c(Oc4cnc5[nH]ccc5c4)c3)CC2)=C(c2ccc(Cl)cc2)C1 + CNCc1ccccc1-c1csc(C(C)Nc2nc(C)nc3cc(OC)c(OC)cc23)c1 | > 10000 nM | 6410 nM | 4570 nM | < 31.6 nM | < 31.6 nM | 99.5% | 105% | 86% | 94.3% | 82.7% | 83.7% | 33.9% | 29.8% | 0.15% | 0.15% | 101% | 99.5% | 82.6% | 69.9% | 86.2% | viability, T/C [16]: 80.9%; viability, T/C [17]: 81.4%; viability, T/C [18]: 30.8%; viability, T/C [19]: 84.2%; viability, T/C [20]: 78.1%; viability, T/C [21]: 64.6%; viability, T/C [22]: 19.4%; viability, T/C [23]: 38.1%; viability, T/C [24]: 32.9%; viability, T/C [25]: 13.1%; viability, T/C [26]: 6.34%; viability, T/C [27]: 0.13%; viability, T/C [28]: 0.11%; viability, T/C [29]: 0.11%; viability, T/C [30]: 0.17% |
| COc1cc(Nc2ncc3c(n2)-c2ccc(Cl)cc2C(c2c(F)cccc2OC)=NC3)ccc1C(=O)O + CNCc1ccccc1-c1csc(C(C)Nc2nc(C)nc3cc(OC)c(OC)cc23)c1 | 39.5 nM | < 31.6 nM | < 31.6 nM | < 31.6 nM | < 31.6 nM | 54.1% | 28.8% | 49.7% | 31.7% | 39.1% | 25.6% | 9.35% | 1.45% | 0.14% | 0.15% | 25.6% | 31.4% | 30.5% | 45% | 28.5% | viability, T/C [16]: 30.3%; viability, T/C [17]: 39.5%; viability, T/C [18]: 33.5%; viability, T/C [19]: 25.1%; viability, T/C [20]: 30%; viability, T/C [21]: 26.2%; viability, T/C [22]: 30.9%; viability, T/C [23]: 1.32%; viability, T/C [24]: 0.29%; viability, T/C [25]: 4.67%; viability, T/C [26]: 15.5%; viability, T/C [27]: 0.15%; viability, T/C [28]: 0.14%; viability, T/C [29]: 0.15%; viability, T/C [30]: 0.18% |
| COc1cc2nccc(Oc3ccc(NC(=O)C4(C(=O)Nc5ccc(F)cc5)CC4)cc3)c2cc1OC + CNCc1ccccc1-c1csc(C(C)Nc2nc(C)nc3cc(OC)c(OC)cc23)c1 | > 10000 nM | 5300 nM | 3470 nM | < 31.6 nM | < 31.6 nM | 99.4% | 99.1% | 98.2% | 92% | 93.3% | 87.4% | 43.2% | 45.6% | 0.13% | 0.14% | 83.8% | 85% | 94.5% | 61.1% | 84.9% | viability, T/C [16]: 96.6%; viability, T/C [17]: 68%; viability, T/C [18]: 28%; viability, T/C [19]: 85.1%; viability, T/C [20]: 85.7%; viability, T/C [21]: 53.9%; viability, T/C [22]: 5.85%; viability, T/C [23]: 49.7%; viability, T/C [24]: 25%; viability, T/C [25]: 12.3%; viability, T/C [26]: 0.16%; viability, T/C [27]: 0.13%; viability, T/C [28]: 0.13%; viability, T/C [29]: 0.29%; viability, T/C [30]: 0.16% |
